Experimental data published in ChEMBL document CHEMBL2407010, “Nitric oxide donating anilinopyrimidines: synthesis and biological evaluation as EGFR inhibitors” (Eur J Med Chem, 2013).
pIC50: −log10 of the molar value. The source made the active and inactive calls. The rule behind the calls is not given here.

Assays:
[1] = target: Epidermal growth factor receptor (Homo sapiens, UniProt P00533, L858R); assay: Inhibition of EGFR L858R mutant (unknown origin) using Tyr 4 peptide as substrate after 1.5 hrs by FRET based Z'-lyte assay; assay type: protein assay
Sequence of Epidermal growth factor receptor (Homo sapiens, UniProt P00533, L858R) (P00533 25-1210 L858R limits assumed): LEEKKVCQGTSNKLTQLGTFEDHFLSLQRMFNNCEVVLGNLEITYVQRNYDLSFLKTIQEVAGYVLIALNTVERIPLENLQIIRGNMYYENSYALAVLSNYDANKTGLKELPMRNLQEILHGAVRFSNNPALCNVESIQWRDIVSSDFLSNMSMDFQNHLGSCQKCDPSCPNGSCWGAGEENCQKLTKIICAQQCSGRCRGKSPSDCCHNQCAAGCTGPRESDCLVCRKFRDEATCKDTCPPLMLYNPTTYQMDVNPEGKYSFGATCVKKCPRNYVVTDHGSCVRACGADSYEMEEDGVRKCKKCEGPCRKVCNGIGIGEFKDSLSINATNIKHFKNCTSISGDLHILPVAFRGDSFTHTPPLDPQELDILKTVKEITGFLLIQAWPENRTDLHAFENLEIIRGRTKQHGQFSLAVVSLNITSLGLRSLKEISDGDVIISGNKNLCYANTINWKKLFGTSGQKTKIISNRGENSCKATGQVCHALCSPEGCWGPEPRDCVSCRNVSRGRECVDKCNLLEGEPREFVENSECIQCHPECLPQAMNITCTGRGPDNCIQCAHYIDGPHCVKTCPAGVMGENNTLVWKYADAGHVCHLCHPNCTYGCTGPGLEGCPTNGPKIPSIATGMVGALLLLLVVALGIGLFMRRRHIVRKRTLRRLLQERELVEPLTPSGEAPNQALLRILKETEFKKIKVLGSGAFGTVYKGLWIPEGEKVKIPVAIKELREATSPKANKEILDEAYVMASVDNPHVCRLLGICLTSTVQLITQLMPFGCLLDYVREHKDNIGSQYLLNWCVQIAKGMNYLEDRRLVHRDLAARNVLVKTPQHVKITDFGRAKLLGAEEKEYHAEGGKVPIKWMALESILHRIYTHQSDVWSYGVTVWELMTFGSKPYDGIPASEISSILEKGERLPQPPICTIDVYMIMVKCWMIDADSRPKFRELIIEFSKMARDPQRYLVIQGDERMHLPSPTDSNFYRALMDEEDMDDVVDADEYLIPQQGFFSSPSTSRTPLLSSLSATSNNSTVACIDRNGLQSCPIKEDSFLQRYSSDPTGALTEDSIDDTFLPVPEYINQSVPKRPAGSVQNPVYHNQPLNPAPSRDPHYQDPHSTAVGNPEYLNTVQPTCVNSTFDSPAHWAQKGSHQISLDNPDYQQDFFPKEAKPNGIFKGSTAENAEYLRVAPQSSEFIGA

[2] = target: T1, Epidermal growth factor receptor (Homo sapiens, UniProt P00533); assay: Inhibition of wild type EGFR (unknown origin) using Tyr 4 peptide as substrate after 1.5 hrs by FRET based Z'-lyte assay
T1 sequence (P00533 whole entry): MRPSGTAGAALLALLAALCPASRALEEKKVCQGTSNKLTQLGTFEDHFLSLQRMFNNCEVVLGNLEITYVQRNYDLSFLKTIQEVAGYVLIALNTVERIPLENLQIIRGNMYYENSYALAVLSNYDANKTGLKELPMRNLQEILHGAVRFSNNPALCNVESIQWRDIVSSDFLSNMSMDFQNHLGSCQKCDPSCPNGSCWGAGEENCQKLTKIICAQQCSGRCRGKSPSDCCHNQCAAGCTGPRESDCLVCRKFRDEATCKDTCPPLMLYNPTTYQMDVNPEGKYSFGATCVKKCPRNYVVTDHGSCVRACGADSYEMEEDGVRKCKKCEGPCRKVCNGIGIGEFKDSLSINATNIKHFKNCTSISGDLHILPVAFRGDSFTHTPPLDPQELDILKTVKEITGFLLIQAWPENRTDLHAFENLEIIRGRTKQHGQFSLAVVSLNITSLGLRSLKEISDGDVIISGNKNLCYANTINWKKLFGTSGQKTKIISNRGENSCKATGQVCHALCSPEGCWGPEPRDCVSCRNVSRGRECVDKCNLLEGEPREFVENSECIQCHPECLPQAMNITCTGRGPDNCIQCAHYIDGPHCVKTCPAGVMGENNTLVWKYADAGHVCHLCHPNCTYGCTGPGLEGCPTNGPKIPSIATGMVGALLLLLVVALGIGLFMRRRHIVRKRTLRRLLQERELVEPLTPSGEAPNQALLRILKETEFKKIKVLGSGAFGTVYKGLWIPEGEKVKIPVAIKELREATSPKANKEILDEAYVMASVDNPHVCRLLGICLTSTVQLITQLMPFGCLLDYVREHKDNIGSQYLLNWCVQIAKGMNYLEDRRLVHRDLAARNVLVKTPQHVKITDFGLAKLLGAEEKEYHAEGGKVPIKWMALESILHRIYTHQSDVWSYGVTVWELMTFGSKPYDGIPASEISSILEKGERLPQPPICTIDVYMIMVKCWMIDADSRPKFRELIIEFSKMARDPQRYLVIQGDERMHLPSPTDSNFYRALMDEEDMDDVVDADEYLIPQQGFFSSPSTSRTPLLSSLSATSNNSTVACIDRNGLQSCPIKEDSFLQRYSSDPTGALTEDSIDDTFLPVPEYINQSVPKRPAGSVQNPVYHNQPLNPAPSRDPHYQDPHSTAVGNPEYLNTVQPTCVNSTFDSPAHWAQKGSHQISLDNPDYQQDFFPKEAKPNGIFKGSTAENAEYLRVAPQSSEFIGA

[3] = Ratio of IC50 for human HCC827 cells expressing EGFR E746_A750 deletion mutant to IC50 for human 16HBE cells
[4] = target: Epidermal growth factor receptor (Homo sapiens, UniProt P00533, L858R/T790M); assay: Inhibition of EGFR L858R/T790M mutant (unknown origin) using Tyr 4 peptide as substrate after 1.5 hrs by FRET based Z'-lyte assay; assay type: protein assay
Sequence of Epidermal growth factor receptor (Homo sapiens, UniProt P00533, L858R/T790M) (P00533 25-1210 T790M/L858R limits assumed): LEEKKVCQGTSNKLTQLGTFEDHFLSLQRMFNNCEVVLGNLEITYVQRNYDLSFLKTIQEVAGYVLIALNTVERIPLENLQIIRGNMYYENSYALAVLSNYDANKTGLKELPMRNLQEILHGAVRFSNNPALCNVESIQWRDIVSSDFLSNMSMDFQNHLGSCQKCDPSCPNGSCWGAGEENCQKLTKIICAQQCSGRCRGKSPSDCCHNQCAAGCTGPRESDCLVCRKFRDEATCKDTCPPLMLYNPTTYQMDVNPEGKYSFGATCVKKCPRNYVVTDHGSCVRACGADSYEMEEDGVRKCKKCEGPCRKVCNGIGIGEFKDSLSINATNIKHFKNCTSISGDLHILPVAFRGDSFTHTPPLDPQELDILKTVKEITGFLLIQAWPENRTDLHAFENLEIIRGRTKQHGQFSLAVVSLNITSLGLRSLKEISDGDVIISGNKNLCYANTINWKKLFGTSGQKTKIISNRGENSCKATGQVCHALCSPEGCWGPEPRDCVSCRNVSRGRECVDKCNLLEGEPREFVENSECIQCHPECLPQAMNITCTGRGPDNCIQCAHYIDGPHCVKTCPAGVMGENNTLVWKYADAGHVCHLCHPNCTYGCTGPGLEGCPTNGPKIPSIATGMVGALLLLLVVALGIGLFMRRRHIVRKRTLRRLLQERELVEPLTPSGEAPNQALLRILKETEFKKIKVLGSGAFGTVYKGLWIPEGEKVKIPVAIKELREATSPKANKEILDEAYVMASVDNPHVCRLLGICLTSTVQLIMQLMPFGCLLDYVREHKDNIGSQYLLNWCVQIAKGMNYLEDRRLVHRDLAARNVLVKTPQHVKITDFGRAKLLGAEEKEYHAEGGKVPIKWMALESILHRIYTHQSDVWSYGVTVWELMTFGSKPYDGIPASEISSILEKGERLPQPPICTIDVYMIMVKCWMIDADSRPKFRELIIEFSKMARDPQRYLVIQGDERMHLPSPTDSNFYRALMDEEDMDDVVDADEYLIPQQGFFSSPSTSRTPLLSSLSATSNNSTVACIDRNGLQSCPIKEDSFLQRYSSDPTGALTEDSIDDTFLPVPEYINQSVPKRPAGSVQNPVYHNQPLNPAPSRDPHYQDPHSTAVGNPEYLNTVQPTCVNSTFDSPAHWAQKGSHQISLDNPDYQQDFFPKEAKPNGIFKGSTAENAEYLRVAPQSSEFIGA

A549 = assay: Antiproliferative activity against wild type EGFR/k-Ras dependent human A549 cells after 72 hrs by MTT assay; settings: A549, 72 h
A-431 = assay: Antiproliferative activity against human A431 cells expressing wild type EGFR after 72 hrs by MTT assay; settings: A-431, 72 h
[5] = Antiproliferative activity against human HCC827 cells expressing EGFR E746_A750 deletion mutant after 72 hrs by MTT assay; settings: HCC827, 72 h
[6] = Antiproliferative activity against human 16HBE cells expressing wild type EGFR after 72 hrs by MTT assay; settings: 16HBE14o-
NCI-H1975 [7] = assay: Ratio of IC50 for human NCI-H1975 cells expressing EGFR L858R/T790M mutant to IC50 for human 16HBE cells
NCI-H1975 [8] = assay: Antiproliferative activity against human NCI-H1975 cells expressing EGFR L858R/T790M mutant after 72 hrs by MTT assay; settings: NCI-H1975, 72 h
NCI-H1975 [9] = assay: Induction of nitric oxide production in human NCI-H1975 cells expressing EGFR L858R/T790M mutant at 100 uM after 72 hrs by Griess assay; assay type: functional, cell-based
16HBE14o- = assay: Induction of nitric oxide production in human 16HBE cells expressing wild type EGFR at 100 uM after 72 hrs by Griess assay; assay type: functional, cell-based
[10] = target: T1, Epidermal growth factor receptor; assay: Inhibition of EGFR phosphorylation in human NCI-H1975 cells assessed as reduction of phosphorylated Erk level at 1 uM after 6 hrs by Western blotting analysis; assay type: cell-based
[11] = target: T1, Epidermal growth factor receptor; assay: Inhibition of EGFR phosphorylation in human NCI-H1975 cells at 0.01 to 1 uM after 6 hrs by Western blotting analysis; assay type: cell-based
[12] = target: T1, Epidermal growth factor receptor; assay: Inhibition of EGFR phosphorylation in human NCI-H1975 cells assessed as reduction of phosphorylated Akt level at 1 uM after 6 hrs by Western blotting analysis; assay type: cell-based
[13] = target: T1, Epidermal growth factor receptor; assay: Inhibition of EGFR phosphorylation in human NCI-H1975 cells after 6 hrs by Western blotting analysis; assay type: cell-based
NCI-H1975 [14] = assay: Antiproliferative activity against human NCI-H1975 cells expressing EGFR L858R/T790M mutant at 1 to 20 uM after 24 hrs by MTT assay in presence of hemoglobin; assay type: functional, cell-based

SMILES | pIC50 [1] | pIC50 [2] | pIC50 [4] | pIC50 (A549) | pIC50 (A-431) | pIC50 (NCI-H1975 [8]) | inhibition [10] | inhibition [11] | inhibition [12] | inhibition [13] | Ratio IC50 [3] | pIC50 [5] | pIC50 [6] | Ratio IC50 (NCI-H1975 [7]) | Activity (NCI-H1975 [9]) | Activity (16HBE14o-) | Activity (NCI-H1975 [14])
COc1cc(N2CCN(C)CC2)ccc1Nc1ncc(Cl)c(Oc2ccc(CCCOc3no[n+]([O-])c3S(=O)(=O)c3ccccc3)cc2)n1 | < 5.00 | 5.64 | 6.11 | 5.55 | 6.26 | 6.50 |  |  |  |  |  | 5.32 | 5.45 |  | Active |  | 
COc1cc(N2CCC(O)CC2)ccc1Nc1ncc(Cl)c(Oc2cccc(COc3no[n+]([O-])c3S(=O)(=O)c3ccccc3)c2)n1 | 6.31 | 6.62 | 7.17 | 5.41 | 5.92 | 7.17 |  |  |  |  | 35 | 7.44 | 5.49 | 35 | Active | Active | 
COc1cc(N2CCC(O)CC2)ccc1Nc1ncc(Cl)c(Oc2ccc(COc3no[n+]([O-])c3S(=O)(=O)c3ccccc3)cc2)n1 | 5.49 | 5.50 | 6.60 | 5.37 | 6.45 | 6.83 |  |  |  |  |  | 7.02 | 5.66 |  |  |  | 
COc1cc(N2CCN(C)CC2)ccc1Nc1ncc(Cl)c(Oc2ccc(COc3no[n+]([O-])c3S(=O)(=O)c3ccccc3)cc2)n1 | 5.82 | 5.96 | 6.85 | 5.44 | 5.66 | 6.66 |  |  |  |  |  | 6.06 | 5.64 |  |  |  | 
COc1cc2ncnc(Nc3ccc(F)c(Cl)c3)c2cc1OCCCN1CCOCC1 |  |  |  |  |  |  |  |  |  |  |  |  |  |  | Active | Active | 

More lines, main results first:

pIC50 [1] | pIC50 [2] | pIC50 [4] | pIC50 (A549) | pIC50 (A-431) | pIC50 (NCI-H1975 [8]) | inhibition [10] | inhibition [11] | inhibition [12] | inhibition [13] | SMILES | Ratio IC50 [3] | pIC50 [5] | pIC50 [6] | Ratio IC50 (NCI-H1975 [7]) | Activity (NCI-H1975 [9]) | Activity (16HBE14o-) | Activity (NCI-H1975 [14])
6.82 | 6.89 | 7.72 | 5.38 | 5.87 | 7.28 |  |  |  |  | COc1cc(N2CCN(C)CC2)ccc1Nc1ncc(Cl)c(Oc2cccc(COc3no[n+]([O-])c3S(=O)(=O)c3ccccc3)c2)n1 | 35 | 7.20 | 5.66 | 35 |  |  | 
 |  |  |  |  |  | Active | Active | Active |  | C=CC(=O)Nc1cccc(Oc2nc(Nc3ccc(N4CCN(C)CC4)cc3OC)ncc2Cl)c1 |  |  |  |  |  |  | 
< 5.00 | < 5.00 | 6.39 | 5.41 | 5.33 | 6.81 |  |  |  |  | C=CC(=O)N1CCN(c2ccc(Nc3ncc(Cl)c(Oc4ccc(COc5no[n+]([O-])c5S(=O)(=O)c5ccccc5)cc4)n3)c(OC)c2)CC1 |  | 5.31 | 5.47 |  |  |  | 
6.43 | 6.46 | 7.35 | 5.77 | 6.46 | 7.26 | Active | Active | Active | Dose-dependent effect | C=CC(=O)N1CCN(c2ccc(Nc3ncc(Cl)c(Oc4cccc(COc5no[n+]([O-])c5S(=O)(=O)c5ccccc5)c4)n3)c(OC)c2)CC1 | 35 | 7.66 | 5.71 | 35 | Active | Active | Active
5.27 | 5.53 | 6.02 | 5.43 | 6.32 | 6.43 |  |  |  |  | COc1cc(N2CCN(C)CC2)ccc1Nc1ncc(Cl)c(Oc2ccc(CCOc3no[n+]([O-])c3S(=O)(=O)c3ccccc3)cc2)n1 |  | 5.71 | 5.62 |  | Active |  | 
